# Where “and” joins values, the source holds several entries; their conditions need not be identical. Equal values may be shown once.
# Assays:
# [1] = Adsorption of Nipastat paraben components from hydrogel by mask layer, HPLC of gel extract; format: physicochemical; details: 48 Hours at 4° C.; for % Loss of Nipastat ® biocide from Gel: Gel + Mask versus Gel Control; for HPLC peak intensity of paraben extracted from hydrogel, Average: average of 5; for HPLC peak intensity of paraben extracted from hydrogel: individual samples 1-5
# Description: (§1) Nipastat®-containing hydrogels were formulated with the appropriate buffer salts under standard conditions, from which samples were taken for analysis. […] The hydrogels were cut using a ¾ inch punch to generate the sample disks to assay. Each disk was added to 5 mL of acetonitrile/water (30% ACN, v/v) and the Nipastat® biocide was extracted for 1 hour while shaking on an orbital shaker at 100 rpm. The extract was then filtered through a 0.2 μm membrane prior to HPLC separation and UV detection at 254 nm.
# (§2) Reverse phase HPLC chromatography was performed using a Waters 3.9 mm×15 cm Nova-Pak C-18 column (Milford, Mass.) operating at a flow rate of between about 1.0 to 2.0 mL/min. at 35° C. The eluent was monitored by UV at 254 nm using a Shimadzu SPD-10AU UV-Visible spectrometer (Kyoto, Japan). Samples 10 μL in volume were injected into the column equilibrated in 30% ACN in water, and the following 20-minute gradient program was performed: • 1. Initial time of injection: 30% ACN/70% water at a flow rate of 1 mL/min • 2. Linear Gradient from 30% ACN to 80% ACN for 9.0 minutes (1 mL/min) • 3. Linear Gradient from 80% ACN to 100% ACN for 0.5 minutes (1 mL/min) • 4. 100% ACN for 4.5 minutes (1 mL/min) • 5. Linear Gradient from 100% ACN to 30% ACN for 0.5 minutes at a flow rate of 2 mL/min • 6.30% ACN for 5.5 minutes at a flow rate of 1 mL/min
# (§3) The HPLC profiles of the extracts were compared with that of a standard solution of known concentration comprising the p-hydroxybenzoate derivatives. The peak intensities of the experimental samples are compared to those of the standards to determine relative amounts of each extracted paraben.
# (§4) Collection assemblies incorporating Nipastat® biocide-comprising hydrogels were assayed for retention of the biocide within the hydrogel. Samples of the hydrogel prior to and after incorporation into the collection assembly, as well as the components of the collection assembly in contact with the hydrogel, were prepared as described in Example 1.
# [2] = Adsorption of Nipastat paraben components from hydrogel by gel retaining layer, HPLC of gel extract; format: physicochemical; details: 9 Days at 4° C.; for % Loss of Nipastat ® biocide from Gel: Gel + GRL versus Gel Control; for HPLC peak intensity of paraben extracted from hydrogel, Average: average of 5; for HPLC peak intensity of paraben extracted from hydrogel: individual samples 1-5
# Description: as §1, §2, §3, §4
# [3] = Loss of undecylenic acid from hydrogel, gel control, GC; format: physicochemical; details: Two Weeks at Room Temperature
# Description: (§5) Collection assemblies incorporating sodium undecylenate-comprising hydrogels were assayed for retention of the biocide within the hydrogel. The presence of undecylenic acid in the hydrogel and assembly components was determined by gas chromatography (GC) using a Hewlett Packard (Avondale, Pa.) 5890 gas chromatogram equipped with an HP 3396A integrator. The hydrogels and collection assembly components were cut using a ¾ inch punch to generate the samples to assay. Each sample “disk” was added to 4 mL of 1M HCl, and the undecylenic acid was extracted for 2 hours while shaking on an orbital shaker at 150 rpm, followed by 10 minutes at 100 rpm. The sample disks were then extracted twice with 4 mL of ethyl acetate. Samples 1 μL in volume were injected into the GC and the results compared to that generated for a standard solution of undecylenic acid.
# [4] = Adsorption of undecylenic acid from hydrogel into mask layer, GC; format: physicochemical; details: Two Weeks at Room Temperature
# Description: as §5
# [5] = Adsorption of undecylenic acid from hydrogel into gel retaining layer, GC; format: physicochemical; details: Two Weeks at Room Temperature
# Description: as §5
# [6] = Response of sensing electrode to glucose, acetaminophen and uric acid in presence of biocide (percent recovery); details: preconditioned 10 minutes at 0.77V, 50 minutes at 0.42V
# Source text: Two biocides were compared with respect to the effects their presence (within the ionically conductive medium) had on signal generation at the sensing element under three conditions: in the presence of glucose, glucose plus acetaminophen, and glucose plus uric acid. The Nipastat® biocide was shown in the examples above to form a permeation selective barrier at the reactive face of the sensor element. The second biocide tested, undecylenic acid, was not expected to polymerize under the iontophoretic conditions used during the functionality test as described in the previous example. The measured responses of the sensor elements are presented in Table 7, normalized to a control “background” response for each sensor element. As described in Example 5, the sensor electrodes were assembled with the collection insert layer containing the appropriate ionically conductive material (control, Nipastat® biocide, or undecylenic acid biocide) to form the autosensor assemblies. The autosensor assemblies were preconditioned for 10 minutes at 0.77V, followed by 50 minutes at 0.42V, after which the glucose solution (200 μM) plus or minus the interferant species was deposited onto the ionically conductive material, and the response of the sensor element measured from this time forward.
# [7] = test system: Aspergillus niger; assay: Modified USP antimicrobial preservative effectiveness test of hydrogels; format: cell-based; details: Aspergillus niger inoculation, 28 day period
# Description: (§6) Nipastat® biocide and undecylenic acid were compared with respect to the effects their presence (within the ionically conductive medium) had on microbial growth over time. A modified USP antimicrobial preservative effectiveness test was performed, using Aspergillus niger, Candida albicans, Eschericia coli, Pseudomonas aeruginosa and Staphylococcus aureus. Separate portions of the two hydrogels were inoculated with a low concentration of one of the listed microorganisms, and recovery of the microorganism was determined over a period of 28 days. For this assay, the microorganisms were cultured, harvested and diluted to yield working suspensions of 2.0×10^3 to 2.0×10^4 colony forming units (CFUs)/sample.
# [8] = test system: Candida albicans; assay: as above; format: cell-based; details: Candida albicans inoculation, 28 day period
# Description: as §6
# [9] = test system: Eschericia coli; assay: as above; format: cell-based; details: Eschericia coli inoculation, 28 day period
# Description: as §6
# [10] = test system: Pseudomonas aeruginosa; assay: as above; format: cell-based; details: Pseudomonas aeruginosa inoculation, 28 day period
# Description: as §6
# [11] = test system: Staphylococcus aureus; assay: as above; format: cell-based; details: Staphylococcus aureus inoculation, 28 day period
# Description: as §6
Compound,% Loss of Nipastat ® biocide from Gel [1],"HPLC peak intensity of paraben extracted from hydrogel, Average ([1]; Gel + Mask)",HPLC peak intensity of paraben extracted from hydrogel ([1]; Gel + Mask),"HPLC peak intensity of paraben extracted from hydrogel, Average ([1]; Gel Control)",HPLC peak intensity of paraben extracted from hydrogel ([1]; Gel Control),% Loss of Nipastat ® biocide from Gel [2],"HPLC peak intensity of paraben extracted from hydrogel, Average ([2]; Gel + GRL)",HPLC peak intensity of paraben extracted from hydrogel ([2]; Gel + GRL),"HPLC peak intensity of paraben extracted from hydrogel, Average ([2]; Gel Control)",HPLC peak intensity of paraben extracted from hydrogel ([2]; Gel Control),other results
"CCCOC(=O)c1ccc(O)cc1 [Propyl, p-hydroxybenzoic acid propyl ester]",99.8%,50,0 (4×) and 252,24535,18744 and 22146 and 27621 and 25936 and 28226,58.5%,10873,4958 and 11465 and 9664 and 15618,26218,24034 and 30121 and 30407 and 24349 and 22180,
"C=CCCCCCCCCC(=O)O [undecylenic acid, 10-undecenoic acid]",,,,,,,,,,,"% Loss for Gel Control, Average ([3]; average): 62.4%; % Loss for Gel Control ([3]; individual hydrogel samples): 64.9% and 68.1% and 75.2% and 76.2% and 37.2% and 52.8%; % Loss for Gel + Mask Layer, Average ([4]; average): 73.1%; % Loss for Gel + Mask Layer ([4]; individual hydrogel samples): 73.3% and 68.5% and 78.2% and 72.5%; % Loss for Gel + GRL, Average ([5]; average): 28.1%; % Loss for Gel + GRL ([5]; individual hydrogel samples): 37.0% and 28.4% and 22.2% and 24.7%; formation of a permeation selective barrier impeding acetominophen and uric acid signal generation [6]: does not; biocide activity within the hydrogel: microbial count [7]: effective at reducing the microbial count; effectiveness compared between the two biocides [7]: more effective than the Nipastat® biocide; biocide activity within the hydrogel: microbial count [8]: effective at reducing the microbial count; effectiveness compared between the two biocides [8]: equally effective; biocide activity within the hydrogel: microbial count [9]: effective at reducing the microbial count; effectiveness compared between the two biocides [9]: equally effective; biocide activity within the hydrogel: microbial count [10]: effective at reducing the microbial count; effectiveness compared between the two biocides [10]: more effective than the Nipastat® biocide; biocide activity within the hydrogel: microbial count [11]: effective at reducing the microbial count; effectiveness compared between the two biocides [11]: more effective than the Nipastat® biocide"
"CCOC(=O)c1ccc(O)cc1 [Ethyl, p-hydroxybenzoic acid ethyl ester]",99.9%,57,0 (4×) and 285,63573,43754 and 52495 and 93771 and 58684 and 69162,34.2%,40848,23429 and 43116 and 38410 and 46214 and 53073,62118,58534 and 68190 and 70588 and 56529 and 56747,
p-hydroxybenzoic acid butyl esters,99.9%,87,0 (4×) and 436,,50220,,,,,,
"COC(=O)c1ccc(O)cc1 [Methyl, p-hydroxybenzoic acid methyl ester]",96.1%,10075,5445 and 11776 and 13807 and 11268 and 8081,257019,199735 and 233495 and 282756 and 265561 and 303549,17.0%,231960,147682 and 239356 and 231307 and 251620 and 289836,279309,261836 and 315315 and 313086 and 256304 and 250006,
